Measurements taken from patent US20240197760A1, “ACTIVATORS OF INTEGRATED STRESS RESPONSE PATHWAY FOR PROTECTION AGAINST FERROPTOSIS” (Burke Neurological Institute, priority 2021, published 2024).
*1 amine or outer side, *2 acyl side, *3 side chain or, on linkers, in order; H or OH if unused. Where a SMILES comes first, the peptide text is derived from it. Bridges are numbered along the chain shown (N, C = ends). Roman numbers before positions name the chains, in order. [ ]: non-standard residue; d: D form. Actinocin(9to1) = Cc1c2oc3c(C)ccc(C(=O)[*:1])c3nc-2c(C(=O)[*:2])c(N)c1=O; NMeV = CN[C@H](C(=O)O)C(C)C; Sar = CNCC(=O)O

Legend:
Creb1, Bdnf, Rbbp4 = experiment: Plasticity gene expression by quantitative real time PCR in mouse primary neurons; type: cell-based; settings: for effect on 2-DG led increase in Bdnf gene expression: increasing concentrations co-treated with 2-DG
Method: Primary immature neuronal cultures were prepared from cerebral cortex of E14 embryos (day 14 of gestation) of CD1 mice under sterile conditions. Dissected cortices were incubated at 37° C. for 20 min in EBSS solution containing papain, L-cystine and EDTA, which was activated at 37 °C for 30 min and then was filtered through […] (Millipore, catalog number—SCGP00525). Cortices were then mechanically dissociated by trituration with glass pipettes. The rDNase was added in dissociated cells followed by incubation of these dissociated cells at 37 °C for 3 min. Thereafter, these cells were centrifuged at 2800 rpm for 5 min. Then supernatant was discarded, and cell were resuspended gently in a 5 ml mixture of EBSS and 10/10 solution (4:1 ratio). Then 5 ml of 10/10 solution was added gently on top and these resuspended cells were centrifuged at 2800 rpm for 10 min. Supernatant was again discarded and cells were resuspended in 10 ml MEM, Glutamax supplement (Thermo Fisher Scientific, Catalog number—41090036) containing 10% heat inactivated fetal bovine serum (Thermo Fisher Scientific, Catalog number—16140071), 5% heat inactivated horse serum (Thermo Fisher Scientific, Catalog number—26050088), and 1% penicillin/streptomycin (Thermo Fisher Scientific, Catalog number—15140122). Thereafter, resuspended cells were filtered through 70-micron cell strainer (Thomas Scientific, catalog number—4620F02) followed by their counting through Hemocytometer. Cells were, finally, plated at the density of 1 million cells/ml onto poly-D-Lysine (PDL; Sigma Aldrich, catalog number—P6407-10X5MG) coated pates and placed in CO2-buffered incubators at 37° C.
(§1) Total RNA was extracted from primary cortical neurons using NucleoSpin RNA II Kit (Clontech, Catalog number—740955-250). Thereafter, using the Taqman RNA-to-Ct, one step kit (Thermo Fisher Scientific, catalog number—4392938) and following the manufacturer's instructions, […] from each sample was mixed with the Taqman® Gene Expression Master Mix and Taqman® Gene Expression Assays for Creb1 (Catalog number—Mm00501607_m1), Bdnf (Catalog number—Mm04230607_s1), Rbbp4 (Catalog number—Mm00771401_g1), Bip (Catalog number—Mm00517691_m1), Trib3 (Catalog number—Mm00454879_m1), and Chac1 (Catalog number—Mm00509926_m1) with FAM labelled probe and Actin with VIC labelled probe all from Thermo Fisher Scientific on an Applied Biosystems 7500 Fast Real Time PCR System. For assessing gene expression of various specific Bdnf exons in mouse primary neurons, two step qPCR was used. Total RNA from primary cortical neurons was extracted using NucleoSpin RNA II Kit (Clontech, Catalog number—740955-250) and a total of 1.5 μg RNA was used to synthesize cDNA with the SuperScript® III First-Strand Synthesis System (Thermo Fisher Scientific, Catalog number—18080051). Quantitative RT-PCR was then performed using SYBR green (Thermo Fisher Scientific, Catalog number—4309155) on an Applied Biosystems 7500 Fast Real Time PCR System. Quantitative levels for all genes were normalized to the housekeeping gene GAPDH and expressed relative to the relevant control samples as fold change. The sequences of primers used in this part of the study were as follows: Bdnf I forward: […] (SEQ ID NO:9) and Bdnf I reverse: […] (SEQ ID NO:10); Bdnf II forward: […] (SEQ ID NO:11) and Bdnf II reverse: […] (SEQ ID NO:12); Bdnf IV forward #2: […] (SEQ ID NO:13) and Bdnf IV reverse #2: […] (SEQ ID NO:14); Bdnf VI forward: […] (SEQ ID NO:15) and Bdnf VI reverse: […] (SEQ ID NO:16); Bdnf VII forward: […] (SEQ ID NO:17) and Bdnf VII reverse: […] (SEQ ID NO:18) Bdnf IX forward: […] (SEQ ID NO:19) and Bdnf IX reverse: […] (SEQ ID NO:20); Gapdh forward #2: […] (SEQ ID NO:21) and Gapdh reverse #2: […] (SEQ ID NO: 22).

[1] = tested on: Trib3 promoter, Bdnf promoter; experiment: Promoter reporter luciferase assay in primary neurons; type: cell-based, mouse; settings: 5 μM co-treated with 2-DG 10 mM, 9 h
Method: Primary neurons were co-transfected with various plasmids such as different Bdnf exon promoters each tagged with firefly luciferase or Trib3 promoter tagged with firefly luciferase and pTK-renilla luciferase plasmid at 1:10 ratio using Lipofectamine 2000 (Thermo Fisher Scientific, catalog number—11668019) according to the manufacturer's instructions to control for transfection efficiency. […] Thereafter, luciferase activity was measured using dual luciferase assay kit (Promega) and bioluminometer (MDS Analytical Technologies). Final luciferase activity was calculated by normalizing firefly luciferase activity with Renilla luciferase activity and then the valued were converted to fold change with respect to control.

Trib3, Chac1, Bip = experiment: Expression of ATF4 target genes and chaperone Bip in mouse primary neurons; type: cell-based; settings: for effect on glucosamine induced expression of Trib3: co-treatment with glucosamine, primary neurons
Method: as §1

hippocampal slices = experiment: Long term potentiation (fEPSP) in submerged hippocampal slices; parameters: species or system mouse; settings: 1 μg/ml with 2-DG 10 mM, 6 h, hippocampal slices
Description: Brains were quickly removed from mice sacrificed by cervical dislocation and placed in cold artificial cerebrospinal fluid (ACSF) (bubbled with 95% O2/5% CO2) containing (in mM): 124 NaCl, 4 KCl, 1 Na2HPO4, 25 NaHCO3, 2 CaCl2, 2 MgCl2, and 10 glucose. The pH and osmolarity of the solution were 7.4 and 310 mOsm/L, respectively. The hippocampus was isolated and placed on a mechanical tissue chopper to produce transverse hippocampal slices of 400 μm thickness. […] Hippocampal slices were allowed to recover for at least 90 min prior to beginning the experiment. For recordings, glass electrodes were filled with ACSF and positioned in the CA1 stratum radiatum to record fEPSPs evoked by local stimulation (0.1 ms) of Schaffer collateral fibers using a bipolar concentric electrode placed laterally to the recording electrode (˜150 μm). For LTP recordings, the voltage intensity of the stimulation test pulse (square pulse, 100 us duration) for each slice was determined to be the voltage intensity that had generated 30-40% of the maximum slope obtained using input-output relationships. Facilitation was calculated as the ratio of the slopes of the second and first fEPSPs, and plotted as a function of the inter-pulse duration. For LTP, a test pulse was applied every minute. […] Residual potentiation was calculated as the average of the last 15 min of 2 h of recordings.

Bdnf = Bdnf gene expression in hippocampal slices submerged in ACSF; parameters: species or system mouse; settings: 1 μg/ml with 2-DG 10 mM in ACSF
[2] = 5 μM co-treated with 2-DG 10 mM, 9 h
[3] = 3 μM, 6 h, mouse primary neurons

O=C[C@@H](O)[C@@H](O)[C@H](O)[C@H](O)CO [D-mannose] was tested, and the “effect on 2-DG led increase in Bdnf gene expression” value (Creb1, Bdnf, Rbbp4; 6 h, mouse primary neurons) was “decreased 2-DG led increase in Bdnf gene expression in a dose dependent manner”.

With Cn1cc(-c2ccc3c(c2)CCN3C(=O)Cc2cccc(C(F)(F)F)c2)c2c(N)ncnc21 [GSK2606414, 7-methyl-5-(1-{[3-(trifluoromethyl)phenyl]acetyl}-2,3-dihydro-1H-indol-5-yl)-7H-pyrrolo[2,3-d]pyrimidin-4-amine] the “effect on 2-DG led increase in Bdnf promoter activity” value [1] was “blocked”, the “effect on 2-DG led increase in Trib3 promoter activity” value [1] was “completely blocked” and the “effect on 2-DG led increase in Bdnf expression (mRNA)” value (Creb1, Bdnf, Rbbp4; [2]) was “blocked”. For the same molecule, the “effect on glucosamine led increase in Bdnf gene expression” value (Creb1, Bdnf, Rbbp4; co-treatment with glucosamine, primary neurons) was “blocked”, the “effect on 2-DG led increase in Trib3 expression (mRNA)” value (Trib3, Chac1, Bip; [2]) was “completely blocked” and the “effect on glucosamine induced expression of Trib3” value (Trib3, Chac1, Bip) was “blocked”. For the same molecule, the “effect on glucosamine induced expression of Trib3” value (Trib3, Chac1, Bip; listed as PERK inhibitor I) was “completely blocked”.

Cc1c2oc3c(C)ccc(C(=O)N[C@@H]4C(=O)N[C@H](C(C)C)C(=O)N5CCC[C@H]5C(=O)N(C)CC(=O)N(C)[C@@H](C(C)C)C(=O)O[C@@H]4C)c3nc-2c(C(=O)N[C@@H]2C(=O)N[C@H](C(C)C)C(=O)N3CCC[C@H]3C(=O)N(C)CC(=O)N(C)[C@@H](C(C)C)C(=O)O[C@@H]2C)c(N)c1=O [ActD, actinomycin D] (I: T[dV]P[Sar][NMeV] / II: T[dV]P[Sar][NMeV]; ester I:1-I:C, II:1-II:C; linker I:N-II:N via Actinocin(9to1)) was tested, and the “effect on 2-DG led induction in LTP” value (hippocampal slices) was “completely blocked”, the “effect on 2-DG led increase in plasticity genes Creb1, Bdnf and Rbbp4” value (Creb1, Bdnf, Rbbp4; co-treatment with 2-DG, 6 h, mouse immature primary neurons) was “completely blocked” and the “effect on 2-DG led increase in Bdnf gene expression in hippocampal slices” value (Bdnf) was “able to block”.

N[C@H]1C(O)O[C@H](CO)[C@@H](O)[C@@H]1O (stereo partly shown) [glucosamine] was tested, and the “glucosamine induced expression of plasticity genes in combination with actinomycin D” value (Creb1, Bdnf, Rbbp4; 6 h, mouse immature primary neurons) was “transcription dependent” and the “expression of plasticity genes Creb1, Bdnf and Rbbp4 (mRNA)” value (Creb1, Bdnf, Rbbp4; increasing concentrations, 6 h, mouse primary neurons) was “dose dependent increase”.

In the case of O=C[C@H](O)[C@@H](O)[C@H](O)[C@H](O)CO [D-glucose], the “effect on 2-DG led increase in Bdnf gene expression” value (Creb1, Bdnf, Rbbp4; 6 h, mouse primary neurons) is reported as “decreased 2-DG led increase in Bdnf gene expression in a dose dependent manner”.

For tunicamycin, the “expression of plasticity genes Creb1 and Bdnf” value (Creb1, Bdnf, Rbbp4; [3]) was “increase” and the “gene expression of chaperone Bip” value (Trib3, Chac1, Bip; [3]) was “increase”.
